Assay results from patent publication US8865894B2, “Oxazolidin-2-one compounds and uses thereof” (Novartis AG, priority 2012, dated 2014).
Read-outs that look alike come from different tables or passages of the source.

Tests used:
mTOR = target: T1, mTOR (Mus musculus, UniProt Q9JLN9); assay: Cellular assay mTOR (phospho-T389 S6K1 SureFire in TSC1-/- MEF cells); type: cell-based
T1 construct: endogenous in cells; host or cells: TSC1-/- MEF (mouse embryo fibroblasts)
Excerpt: A cell based assay (384-well format) was developed for determination of compound effects on cellular mTOR kinase activity in MEF (mouse embryo fibroblasts) cells derived from mice lacking TSC1 (Tuberosclerosis Complex1) a potent suppressor of mTOR kinase activity. Due to lack of TSC1 the mTOR kinase is constitutively activated resulting in permanent phosphorylation of Thr 389 of S6 kinase 1 (S6K1) which is one of the downstream targets of mTOR.
Using a SureFire Kit that enables to determine the phosphorylation of Thr389 on the S6K1 an assay was developed, validated and implemented in the Alpha-Screen format that allows the quantitative determination of phospho-T389 of S6K1 in cell lysates. […] These were in agreement with those values obtained with the biochemical mTOR ATP-binding assay enabling a quantitative comparison of potency of mTOR inhibitors.
TSC1−/− MEFs cells (Kwiatkowski, D. J., Zhang, H., Bandura, J. L., Heiberger, K. M., Glogauer, M., el-Hashemite, N., and Onda, H. (2002) Hum. Mol. Genet. 11, 525-534) were cultured in DMEM high glucose medium supplemented with 10% FBS (Invitrogen), 2 mM Glutamine and 1% (w/v) Penicillin/Streptomycin at 37° C., 5% CO2.
The SureFire kit for determination of P70S6kinase phosphorylation was purchased from Perkin Elmer (p70S6K p-T389, #TGR70S50K) and the assay was performed according to the instructions of the supplier and according to the generic method for SureFire assays. Shortly, 5 μL cell lysate per well were transferred to 384-well white proxy-plates (for luminescent readout) and mixed with […] and […] (final volume: 12 μL). After 3 h incubation in the dark at RT luminescence was read with the Envision Reader (Perkin Elmer). Untreated cells were used as control (high control) and cells treated with 3 μM BEZ235 were used as low control. The assay window between the signals obtained for the high and the low controls were defined as 100% and compound effects were expressed as percent inhibition. IC50 values were calculated from the dose response curves by graphical extrapolation.

human PI3Kβ = target: T2, human PI3Kβ (Homo sapiens, UniProt P42338); assay: Biochemical PI3Kbeta (KinaseGlo luminescent kinase assay); conditions: 1 μM ATP, mean of n measurements, read-out: PI3Kb/ IC50
T2 construct: made in house
Experimental: Test compounds were dissolved in DMSO (10 mM) and transferred into 1.4 mL flat bottom or V-shaped Matrix tubes carrying a unique 2D matrix chip by individual Novartis compound hubs. The numbers of these chips were distinctively linked to Novartis Pharma Numbers. The stock solutions were stored at −20° C. if not used immediately. For the test procedure the vials were defrosted and identified by a scanner whereby a working sheet was generated that guided the subsequent working steps.
Compounds were either manually diluted in DMSO for individual experiments (96 wells enabling 10 cpds at 8 (single points) concentrations) as described in or prepared as described below if tested for profiling in 384-wells. This format enabled the assay of maximally 40 individual test compounds at 8 concentrations (single points) including 4 reference compounds. The dilution protocol included the production of “pre-dilution plates”, “master plates” and “assay plates”.
96 polypropylene well plates were used as pre-dilution plates. A total of 4 pre-dilution plates were prepared including 10 test compounds each on the plate positions A1-A10, one standard compound at A11 and one DMSO control at A12. Programs have been written to run these pipetting steps on the HamiltonSTAR robots.
Identical “assay plates” were then prepared by pipetting 50 nL each of compound dilutions of the “master plates” into 384-well “assay plates”. The compounds were mixed with 4.5 μL of assays components plus 4.5 μL enzyme corresponding to a 1:181 dilution enabling the final concentration of 10, 3.0, 1.0, 0.3, 0.1, 0.03, 0.01 and 0.003 μM, respectively. The preparation of the “master plates” was handled by the Matrix PlateMate Plus robot and replication of “assay plates” by the HummingBird robot.
Catalytically active human PI3Kα, PI3Kβ, PI3Kδ, and mTOR were cloned, expressed and purified as described (Maira S M, Stauffer F, Brueggen J, Furet P, Schnell C, Fritsch C, Brachmann S, Chène P, de Pover A, Schoemaker K, Fabbro D, Gabriel D, Simonen M, Murphy L, Finan P, Sellers W, García-Echeverría C (2008), Mol Cancer Ther. 7:1851-63 and Maira S M, Pecchi S, Brueggen J, Huh K, Schnell C, Fritsch C, Nagel T, Wiesmann M, Brachmann S, Dorsch M, Chène P, Schoemaker K, De Pover A, Menezes D, Fabbro D, Sellers W, García-Echeverría C, Voliva C F (2011), Mol. Cancer Ther. accepted).
The luminescence-based ATP detection reagent KinaseGlo was obtained from Promega, (Cat. No. V6714, Lot No. 236161) through Catalys, Wallisellen, Switzerland. (L-alpha-phosphatidylinositol (PI), Liver, Bovine) were obtained from Avanti Polar Lipid (Cat. No. 840042C, Lot#LPI-274), Phosphatidylinositol-4,5-bisphosphate (PIP(4,5)2 (Avanti, Cat. No. 840046×) or L-α-phosphatidylinositol (PI) was obtained from Avanti Polar Lipid (Cat. No. 840042C, Lot#LPI-274). L-α-Phosphatidylserine (PS) was from Avanti Polar Lipid (Cat. No. 840032C), n-OctylGlucoside Avanti Polar Lipid (Cat. No. 10634425001). Luminescence is a well established readout to determine ATP concentrations and can thus be used to follow the activity of many kinases regardless of their substrate. The Kinase Glo Luminescent Kinase Assay (Promega, Madison/Wis., USA) is a homogeneous HTS method of measuring kinase activity by quantifying the amount of ATP remaining in solution following a kinase reaction.
50 nL of compound dilutions were dispensed onto black 384-well low volume Non Binding Styrene (NBS) plates (Costar Cat. No. NBS#3676) as described in section 8.2. L-α-phosphatidylinositol (PI), provided as 10 mg/ml solution in methanol, was transferred into a glass tube and dried under nitrogen beam. It was then resuspended in 3% OctylGlucoside by vortexing and stored at 4° C. 5 μL of a mix of PI/OG with the PI3Ka and Pi3Kb subtypes were added. Kinase reactions were started by addition of 5 μl of ATP-mix containing in a final volume 10 μL 10 mM TRIS-HCl pH 7.5, 3 mM MgCl2, 50 mM NaCl, 0.05% CHAPS, 1 mM DTT and 1 μM ATP, and occurred at room temperature.

[1] = TSC1-/- MEF cells, read-out: mTOR S6K(T389)_TSC1ko/ IC50
[2] = second value / 3 of the 4 values / 3 of the 5 values as per footnote, read-out: mTOR S6K(T389)_TSC1ko IC50, further individual values (footnotes)

T2 sequence (P42338 2-1070 limits assumed): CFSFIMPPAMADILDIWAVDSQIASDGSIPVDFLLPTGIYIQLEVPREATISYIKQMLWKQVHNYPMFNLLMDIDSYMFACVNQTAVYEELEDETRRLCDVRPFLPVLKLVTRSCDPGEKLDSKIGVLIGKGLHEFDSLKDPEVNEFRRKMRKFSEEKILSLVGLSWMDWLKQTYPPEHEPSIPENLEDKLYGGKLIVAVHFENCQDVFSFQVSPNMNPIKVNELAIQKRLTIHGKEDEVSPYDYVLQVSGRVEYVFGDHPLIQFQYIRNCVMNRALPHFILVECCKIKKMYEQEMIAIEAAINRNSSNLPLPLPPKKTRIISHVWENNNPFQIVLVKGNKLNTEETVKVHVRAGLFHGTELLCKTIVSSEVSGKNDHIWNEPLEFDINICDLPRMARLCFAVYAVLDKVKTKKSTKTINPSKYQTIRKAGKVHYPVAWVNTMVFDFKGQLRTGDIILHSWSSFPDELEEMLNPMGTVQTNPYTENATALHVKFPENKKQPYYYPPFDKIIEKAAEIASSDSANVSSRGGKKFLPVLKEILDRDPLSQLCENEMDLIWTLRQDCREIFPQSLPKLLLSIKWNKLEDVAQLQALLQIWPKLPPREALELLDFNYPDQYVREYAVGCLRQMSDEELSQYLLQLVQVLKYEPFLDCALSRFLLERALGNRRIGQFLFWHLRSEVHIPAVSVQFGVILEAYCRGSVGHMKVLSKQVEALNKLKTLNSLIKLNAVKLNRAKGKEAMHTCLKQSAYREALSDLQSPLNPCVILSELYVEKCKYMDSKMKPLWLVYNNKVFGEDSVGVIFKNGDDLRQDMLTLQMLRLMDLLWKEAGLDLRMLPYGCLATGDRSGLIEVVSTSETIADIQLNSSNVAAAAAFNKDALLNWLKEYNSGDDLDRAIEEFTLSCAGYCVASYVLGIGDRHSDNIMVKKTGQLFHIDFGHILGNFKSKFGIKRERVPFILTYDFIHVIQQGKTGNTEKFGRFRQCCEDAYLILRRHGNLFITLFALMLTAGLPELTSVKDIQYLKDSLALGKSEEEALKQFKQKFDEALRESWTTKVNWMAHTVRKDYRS

Row | Structure (SMILES) | IC50 (mTOR; [1]) | IC50 (human PI3Kβ) | IC50 (mTOR; [2])
1 | C[C@H]1C(CC(C)(C)O)OC(=O)N1c1cc(-c2cnc(N)nc2C(F)(F)F)nc(N2CCOCC2)n1 (mixture of isomers) [Example 26, (4S,5R)- and (4S,5S)-3-(2′-amino-2-morpholino-4′-(trifluoromethyl)-[4,5′-bipyrimidin]-6-yl)-5-(2-hydroxy-2-methylpropyl)-4-methyloxazolidin-2-one] | 857 nM | 124 nM | –
2 | CC1(CO)COC(=O)N1c1cc(-c2cnc(N)nc2C(F)(F)F)nc(N2CCOCC2)n1 (racemic) [Example 3, 3-(2′-amino-2-morpholino-4′-(trifluoromethyl)-4,5′-bipyrimidin-6-yl)-4-(hydroxymethyl)-4-methyloxazolidin-2-one] | 759 nM | 18 nM | –
3 | Nc1ncc(-c2cc(N3C(=O)O[C@@H]4[C@@H](O)CC[C@@H]43)nc(N3CCOCC3)n2)c(C(F)(F)F)n1 (racemic) [Example 22, (3aR*,6R*,6aR*)-3-(2′-Amino-2-morpholino-4′-(trifluoromethyl)-[4,5′-bipyrimidin]-6-yl)-6-hydroxyhexahydro-2H-cyclopenta[d]oxazol-2-one] | 1390 nM | 48 nM | –
4 | Nc1ncc(-c2cc(N3C(=O)OC4C(O)CCC43)nc(N3CCOCC3)n2)c(C(F)(F)F)n1 (single isomer, unassigned) [Example 22A] | 2120 nM | 86 nM | –
5 | Nc1ncc(-c2cc(N3C(=O)OC4C(O)CCC43)nc(N3CCOCC3)n2)c(C(F)(F)F)n1 (single isomer, unassigned) [Example 22B] | 2300 nM | 58 nM | –
6 | C[C@@H](O)C[C@H]1OC(=O)N(c2cc(-c3cnc(N)nc3C(F)(F)F)nc(N3CCOCC3)n2)[C@H]1C (single isomer, unassigned) [Example 24] | 1830 nM | 16 nM | –
7 | C[C@H](O)CC1OC(=O)N(c2cc(-c3cnc(N)nc3C(F)(F)F)nc(N3CCOCC3)n2)[C@H]1C (single isomer, unassigned) [Example 25] | 1830 nM | 11 nM | –
8 | C[C@H]1COC(=O)N1c1cc(-c2cnc(N)nc2C(F)(F)F)nc(N2CCOCC2)n1 [Example 1, (S)-3-(2′-Amino-2-morpholin-4-yl-4′-trifluoromethyl-[4,5′]bipyrimidinyl-6-yl)-4-methyl-oxazolidin-2-one] | 964 nM | 6 nM | –
9 | CC1(C)OC(=O)N(c2cc(-c3cnc(N)nc3C(F)(F)F)nc(N3CCOCC3)n2)[C@H]1CO [Example 2, (S)-3-(2′-Amino-2-morpholin-4-yl-4′-trifluoromethyl-[4,5′]bipyrimidinyl-6-yl)-4-hydroxymethyl-5,5-dimethyl-oxazolidin-2-one] | – | 20 nM | –
10 | Nc1ncc(-c2cc(N3C(=O)O[C@H]4CCCC[C@@H]43)nc(N3CCOCC3)n2)c(C(F)(F)F)n1 [Example 4, (3aS,7aS)-3-(2′-Amino-2-morpholin-4-yl-4′-trifluoromethyl-[4,5′]bipyrimidinyl-6-yl)-hexahydro-benzooxazol-2-one] | 647 nM | 7 nM | –
11 | COC[C@H]1COC(=O)N1c1cc(-c2cnc(N)nc2C(F)(F)F)nc(N2CCOCC2)n1 [Example 5, (S)-3-(2′-Amino-2-morpholin-4-yl-4′-trifluoromethyl-[4,5′]bipyrimidinyl-6-yl)-4-methoxymethyl-oxazolidin-2-one] | 1410 nM | 11 nM | –
12 | C[C@@H]1OC(=O)N(c2cc(-c3cnc(N)nc3C(F)(F)F)nc(N3CCOCC3)n2)[C@H]1CO [Example 6] | 574 nM | 7 nM | –
13 | [2H]C1([2H])OC([2H])([2H])C([2H])([2H])N(c2nc(-c3cnc(N)nc3C(F)(F)F)cc(N3C(=O)O[C@H](C)[C@@H]3CO)n2)C1([2H])[2H] [Example 8] | 994 nM | 4 nM | –
14 | Nc1ncc(-c2cc(N3C(=O)OC[C@@H]3CCO)nc(N3CCOCC3)n2)c(C(F)(F)F)n1 [Example 9, (S)-3-(2′-Amino-2-morpholin-4-yl-4′-trifluoromethyl-[4,5′]bipyrimidinyl-6-yl)-4-(2-hydroxy-ethyl)-oxazolidin-2-one] | 1260 nM | 41 nM | > 2270 nM
15 | C[C@H]1OC(=O)N(c2cc(-c3cnc(N)nc3C(F)(F)F)nc(N3CCOC[C@@H]3C)n2)[C@H]1CO [Example 10, (4S,5R)-3-[2′-Amino-2-((S)-3-methyl-morpholin-4-yl)-4′-trifluoromethyl-[4,5′]bipyrimidinyl-6-yl]-4-hydroxymethyl-5-methyl-oxazolidin-2-one] | 2020 nM | 38 nM | > 2270 nM
16 | Nc1ncc(-c2cc(N3CCOC3=O)nc(N3CCOCC3)n2)c(C(F)(F)F)n1 [Example 11, 3-(2′-Amino-2-morpholin-4-yl-4′-trifluoromethyl-[4,5′]bipyrimidinyl-6-yl)-oxazolidin-2-one, reference compound] | 1410 nM | 12 nM | > 2270 nM
17 | C[C@H]1OC(=O)N(c2cc(-c3cnc(N)nc3C(F)(F)F)nc(N3CCOCC3)n2)[C@H]1COC=O [Example 12, Formic acid (4S,5R)-3-(2′-amino-2-morpholin-4-yl-4′-trifluoromethyl-[4,5′]bipyrimidinyl-6-yl)-5-methyl-2-oxo-oxazolidin-4-ylmethyl ester] | 1100 nM | 49 nM | –
18 | C[C@H]1COCCN1c1nc(-c2cnc(N)nc2C(F)(F)F)cc(N2C(=O)OC[C@@H]2C)n1 [Example 13, (S)-3-[2′-Amino-2-((S)-3-methyl-morpholin-4-yl)-4′-trifluoromethyl-[4,5′]bipyrimidinyl-6-yl]-4-methyl-oxazolidin-2-one] | 1950 nM | 146 nM | –
